Experimental data: ChEMBL document CHEMBL1909606, “Polarization in the structures of uracil and thiouracils: Implication for binding with orotidine 5'-monophosphate decarboxylase” (Bioorg Med Chem Lett, 2011)

Experiment: Binding affinity to orotidine-5'-monophosphate decarboxylase relative to uracil

relative binding affinity (RBA)	Structure (SMILES)
29	O=c1cc[nH]c(=S)[nH]1
61	Oc1nccc(S)n1
